Test results taken from patent publication US20070149508A1, “Six membered heteroaromatic inhibitors targeting resistant kinase mutations” (TargeGen, Inc., priority 2005, published 2007).
Structures can show the parent of a compound that is named as a salt.

Columns and labels:
Abl kinase = Abl kinase (Homo sapiens, UniProt P00519); experiment: biochemical; details: Abl IC50 (nM), Abl kinase (Invitrogen, 20 ng/well), Abltide 100 μM, ATP 500 nM, 37° C. for 60 minutes, top concentration 10 uM
Abl (T315I) = molecular target: T1, Abl (T315I) (Homo sapiens, UniProt P00519, T315I); experiment: Abl (T315I) Kinase Assay (KinaseGlo luminescent detection of residual ATP); format: biochemical; details: Abl (T315I) IC50 (nM), Abl (T315I) (Upstate, 17 ng/well), Abltide 100 uM, ATP 500 nM, 60 minutes at 37° C.
T1 construct: purchased Upstate
Experimental: The assay was performed similarly to the Abl kinase assay. Abl (T315I) (Upstate, 17 ng/well); Abltide substrate (100 uM) and ATP (500 nM) comprised the reaction mixture. Compound was similarly diluted, and the reaction plate was incubated for 60 minutes at 37° C.

Structure (SMILES) | IC50 (Abl kinase) [nM] | IC50 (Abl (T315I)) [nM]
O=S(=O)(c1ccc(Nc2ncc(/C=C/c3cccc(-c4cn[nH]c4)c3)cn2)cc1)C1CCNCC1 [5-(3-(1H-pyrazol-4-yl)styryl)-N-(4-(piperidin-4-ylsulfonyl)phenyl)-pyrimidin-2-amine Hydrochloride] | 1740 | 1980
O=C(Nc1nc2ccc(/C=C/c3cnc(Nc4ccc(S(=O)(=O)C5CCNCC5)cc4)nc3)cc2s1)c1cccc(C(F)(F)F)c1 [N-(6-((E)-2-(2-(4-(piperidin-4-ylsulfonyl)phenylamino)pyrimidin-5-(trifluoromethyl)benzamide Hydrochloride] | 967 | 332
N#Cc1ccc(Nc2ncc(/C=C/c3cccc4[nH]ccc34)cn2)cc1 [4-(5-((E)-2-(1H-indol-4-yl)vinyl)pyrimidin-2-ylamino)benzonitrile] | 174 | > 10000
O=C(Nc1nc2ccc(/C=C/c3cnc(Nc4ccc(S(=O)(=O)C5CCNCC5)cc4)nc3)cc2s1)c1cccc(F)c1 [N-(6-((E)-2-(2-(4-(piperidin-4-ylsulfonyl)phenylamino)pyrimidin-5-yl)vinyl)benzo[d]thiazol-2-yl)-3-fluorobenzamide Hydrochloride] | 629 | 2740
Nc1nc2c(/C=C/c3cnc(Nc4ccc(S(=O)(=O)C5CCNCC5)cc4)nc3)cccc2s1 [4-((E)-2-(2-(4-(piperidin-4-ylsulfonyl)phenylamino)pyrimidin-5-yl)vinyl)benzo[d]thiazol-2-amine Hydrochloride] | 39 | 394
C=Cc1cnc(Nc2ccc(S(=O)(=O)C3CCNCC3)cc2)nc1 [N-(4-(piperidin-4-ylsulfonyl)phenyl)-5-vinylpyrimidin-2-amine trifluoroacetate] | 1390 | 368

Continued, values first:

IC50 (Abl kinase) [nM] | IC50 (Abl (T315I)) [nM] | Structure (SMILES)
4.6 | 36 | O=S(=O)(NC1CCNCC1)c1ccc(Nc2ncc(/C=C/c3cccc(O)c3)cn2)cc1 [4-{5-[2-(3-Hydroxy-phenyl)-vinyl]-pyrimidine-2-ylamino}-N-piperdin-4-yl-benzenesulfonamide Hydrochloride]
97 | 752 | O=S(=O)(c1ccc(Nc2ncc(/C=C/c3cccc(O)c3)cn2)cc1OC(F)(F)F)N1CCNCC1 [3-(2-{2-[4-(Piperazine-1-sulfonyl)-3-trifluoromethoxy-phenylamino]-pyrimidin-5-yl}-vinyl)-phenol]
198 | 2070 | NS(=O)(=O)c1cccc(/C=C/c2cnc(Nc3ccc(S(=O)(=O)C4CCNCC4)cc3)nc2)c1 [3-(2-{2-[4-(Piperidine-4-sulfonyl)-phenylamino]-pyrimidin-5-yl}-vinyl)-benzenesulfonamide Hydrochloride]
244 | ~10000 | O=S(=O)(c1cccc(Nc2ncc(/C=C/c3cccc4[nH]ccc34)cn2)c1)N1CCNCC1 [5-[(E)-2-(1H-indol-4-yl)vinyl]-N-{3-(piperazin-1-ylsulfonyl)phenyl]pyrimidin-2-amine]
7.1 | 141 | O=S(=O)(NCCN1CCCC1)c1ccc(Nc2ncc(/C=C/c3cccc(O)c3)cn2)cc1 [4-{5-[2-(3-Hydroxy-phenyl)-vinyl]-pyrimidin-2-ylamino}-N-(2-pyrrolidin-1-yl-ethyl)-benzenesulfonamide]
1020 | 2100 | Nc1nc2ccc(/C=C/c3cnc(Nc4ccc(S(=O)(=O)N5CCNCC5)c(C(F)(F)F)c4)nc3)cc2s1 [6-[(E)-2-(2-{[4-(piperazin-1-ylsulfonyl)-3-(trifluoromethyl)phenyl]amino)pyrimidin-5-yl)vinyl]-1,3-benzothiazol-2-amine]
12 | 184 | O=S(=O)(c1ccc(Nc2ncc(/C=C/c3cccc4[nH]ncc34)cn2)cc1)N1CCCNCC1 [[4-([1,4]Diazepane-1-sulfonyl)-phenyl]-{5-[2-(1H-indazol-4-yl)-vinyl]-pyrimidin-2-yl}-amine]
